pIC50: −log10 of the molar value.

T1 sequence (Q99814 whole entry): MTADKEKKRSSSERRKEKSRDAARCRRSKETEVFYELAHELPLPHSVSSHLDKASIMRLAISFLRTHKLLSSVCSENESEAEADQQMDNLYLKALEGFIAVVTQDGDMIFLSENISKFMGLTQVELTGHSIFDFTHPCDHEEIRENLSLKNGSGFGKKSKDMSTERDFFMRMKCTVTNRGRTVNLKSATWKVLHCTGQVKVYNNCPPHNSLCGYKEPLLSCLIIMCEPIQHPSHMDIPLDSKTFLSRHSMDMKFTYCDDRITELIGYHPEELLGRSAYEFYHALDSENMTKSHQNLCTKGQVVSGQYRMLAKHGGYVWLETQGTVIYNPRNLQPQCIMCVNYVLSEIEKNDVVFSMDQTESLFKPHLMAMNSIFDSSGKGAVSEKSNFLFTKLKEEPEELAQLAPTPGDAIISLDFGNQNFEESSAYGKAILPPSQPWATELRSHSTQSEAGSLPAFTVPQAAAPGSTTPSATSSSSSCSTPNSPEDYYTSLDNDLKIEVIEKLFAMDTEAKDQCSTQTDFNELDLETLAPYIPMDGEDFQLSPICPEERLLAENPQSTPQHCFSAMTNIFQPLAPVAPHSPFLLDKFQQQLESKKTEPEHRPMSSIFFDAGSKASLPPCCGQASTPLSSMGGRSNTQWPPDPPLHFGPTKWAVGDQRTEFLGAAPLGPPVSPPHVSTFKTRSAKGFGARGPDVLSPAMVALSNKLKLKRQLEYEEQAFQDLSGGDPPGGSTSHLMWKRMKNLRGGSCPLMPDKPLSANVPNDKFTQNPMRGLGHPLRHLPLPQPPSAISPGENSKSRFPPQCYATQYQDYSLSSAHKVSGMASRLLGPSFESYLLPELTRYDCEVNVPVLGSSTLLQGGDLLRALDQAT

One experiment concerns the target T1, HIF-2α (Homo sapiens, UniProt Q99814).
T1 construct: host or cells: 786-O cells stably transduced with Cignal Lenti HIF Luc Reporter (only the reporter was introduced, not HIF-2α)
Put plainly: HIF-2α luciferase reporter assay in HIF-Luc-786-O cells. The class given is cell-based. The note with it: Table 1, 20 hours incubation. The method in brief:
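786-O cells stably carrying a HIF-responsive luciferase reporter, 20,000/well in OptiMem with 1% DMSO, exposed to compound up to 50 uM for 20 h at 37 °C. ONE-Glo luminescence normalised to DMSO and no-cell controls; IC50 by four-parameter fit.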
The term pIC50 denotes the IC50 on a negative log10 scale, so that one unit is a factor of ten. Low values mean a large IC50, high ones a small IC50. For `O=[N+]([O-])c1cc(S(=O)(=O)C(F)(F)F)ccc1N1CCCc2ccc(C(F)F)cc21` [Example 67], the pIC50 was < 6.00.

The same experiment, now with this note: Table 3, 20 hours incubation.
The molecule `CS(=O)(=O)c1ccc([C@H]2CC[C@H](F)c3cc(F)cc(C#N)c32)c2c1[C@H](O)[C@](F)(C#N)C2` [Example 248, (5S,8R)-8-[(1S,2R)-2-cyano-2-fluoro-1-hydroxy-7-methylsulfonyl-1,3-dihydroinden-4-yl]-3,5-difluoro-5,6,7,8-tetrahydronaphthalene-1-carbonitrile] showed a pIC50 of 6.00 to 7.00. For the molecule `Cc1ccc(-c2ccc([C@H]3CC[C@H](F)c4cc(F)cc(C#N)c43)c3c2[C@H](O)C(F)(F)C3)c(N)c1` [Example 195, (5S,8R)-8-[(1S)-7-(2-amino-4-methylphenyl)-2,2-difluoro-1-hydroxy-1,3-dihydroinden-4-yl]-3,5-difluoro-5,6,7,8-tetrahydronaphthalene-1-carbonitrile], the pIC50 was > 7.00. On the same count and under the same terms, the same measure for `N#Cc1cc(F)cc2c1[C@@H](c1ccc(-c3ncncc3N)c3c1CC(F)(F)[C@H]3O)CC[C@@H]2F` [Example 181, (5S,8R)-8-[(1S)-7-(5-aminopyrimidin-4-yl)-2,2-difluoro-1-hydroxy-1,3-dihydroinden-4-yl]-3,5-difluoro-5,6,7,8-tetrahydronaphthalene-1-carbonitrile]: 6.00 to 7.00; for `N#Cc1cc(F)cc2c1[C@@H](c1ccc(-c3cccc4cn[nH]c34)c3c1CC(F)(F)[C@H]3O)CC[C@@H]2F` [Example 187, (5S,8R)-8-[(1S)-2,2-difluoro-1-hydroxy-7-(1H-indazol-7-yl)-1,3-dihydroinden-4-yl]-3,5-difluoro-5,6,7,8-tetrahydronaphthalene-1-carbonitrile]: > 7.00; for `Cc1cccnc1-c1ccc([C@H]2CC[C@H](F)c3cc(F)cc(C#N)c32)c2c1[C@H](O)C(F)(F)C2` [Example 244, (5S,8R)-8-[(1S)-2,2-difluoro-1-hydroxy-7-(3-methylpyridin-2-yl)-2,3-dihydro-1H-inden-4-yl]-3,5-difluoro-5,6,7,8-tetrahydronaphthalene-1-carbonitrile]: > 7.00.

In the case of `N#Cc1cc(F)cc2c1[C@@H](c1ccc(-c3cnccc3F)c3c1CC(F)(F)[C@H]3O)CC[C@@H]2F` [Example 163, (5S,8R)-8-[(1S)-2,2-difluoro-7-(4-fluoropyridin-3-yl)-1-hydroxy-2,3-dihydro-1H-inden-4-yl]-3,5-difluoro-5,6,7,8-tetrahydronaphthalene-1-carbonitrile], the pIC50 was > 7.00.

`Cc1ncoc1-c1ccc([C@H]2CC[C@H](F)c3cc(F)cc(C#N)c32)c2c1[C@H](O)C(F)(F)C2` [Example 151, (5S,8R)-8-[(1S)-2,2-difluoro-1-hydroxy-7-(4-methyl-1,3-oxazol-5-yl)-1,3-dihydroinden-4-yl]-3,5-difluoro-5,6,7,8-tetrahydronaphthalene-1-carbonitrile]: the pIC50 was > 7.00. The same measure, in the same setting: under `N#Cc1cc(F)cc2c1[C@@H](c1ccc(Cl)c3c1CC(F)(F)[C@H]3O)C[C@H](F)[C@@H]2F` [Example 219, (5R,6S,8R)-8-[(1S)-7-chloro-2,2-difluoro-1-hydroxy-2,3-dihydro-1H-inden-4-yl]-3,5,6-trifluoro-5,6,7,8-tetrahydronaphthalene-1-carbonitrile] stands > 7.00; under `Cn1nncc1-c1ccc([C@H]2C[C@H](F)[C@H](F)c3cc(F)cc(C#N)c32)c2c1[C@H](O)C(F)(F)C2` [Example 218, (5R,6S,8R)-8-[(1S)-2,2-difluoro-1-hydroxy-7-(1-methyl-1H-1,2,3-triazol-5-yl)-2,3-dihydro-1H-inden-4-yl]-3,5,6-trifluoro-5,6,7,8-tetrahydronaphthalene-1-carbonitrile], > 7.00; under `Cn1cncc1-c1c(F)cc([C@H]2C[C@H](F)[C@H](F)c3cc(F)cc(C#N)c32)c2c1[C@H](O)C(F)(F)C2` [Example 208, (5R,6S)-3,5,6-trifluoro-8-[(1S)-2,2,6-trifluoro-1-hydroxy-7-(1-methyl-1H-imidazol-5-yl)-2,3-dihydro-1H-inden-4-yl]-5,6,7,8-tetrahydronaphthalene-1-carbonitrile], > 7.00. The same measure, in the same setting: the same measure for `Cc1ncc(-c2ccc([C@H]3CC[C@H](F)c4cc(F)cc(C#N)c43)c3c2[C@H](O)C(F)(F)C3)o1` [Example 148, (5S,8R)-8-[(1S)-2,2-difluoro-1-hydroxy-7-(2-methyl-1,3-oxazol-5-yl)-1,3-dihydroinden-4-yl]-3,5-difluoro-5,6,7,8-tetrahydronaphthalene-1-carbonitrile]: 6.00 to 7.00.

In turn, `CN(C)C(=O)c1ccc([C@H]2CC[C@H](F)c3cc(F)cc(C#N)c32)c2c1[C@H](O)C(F)(F)C2` [Example 224, (3S)-7-[(1R,4S)-8-cyano-4,6-difluoro-1,2,3,4-tetrahydronaphthalen-1-yl]-2,2-difluoro-3-hydroxy-N,N-dimethyl-1,3-dihydroindene-4-carboxamide] had a pIC50 of 6.00 to 7.00. Still for that read-out and setting: the same measure for `N#Cc1cc(F)cc2c1[C@@H](c1ccc(-c3cnc(C(N)=O)s3)c3c1CC(F)(F)[C@H]3O)CC[C@@H]2F` [Example 180, 5-[(3S)-7-[(1R,4S)-8-cyano-4,6-difluoro-1,2,3,4-tetrahydronaphthalen-1-yl]-2,2-difluoro-3-hydroxy-1,3-dihydroinden-4-yl]-1,3-thiazole-2-carboxamide]: > 7.00.

On to `N#Cc1cc(F)cc2c1[C@@H](c1ccc(-c3cccnc3)c3c1CC(F)(F)[C@H]3O)CC[C@@H]2F` [Example 160, (5S,8R)-8-[(1S)-2,2-difluoro-1-hydroxy-7-pyridin-3-yl-1,3-dihydroinden-4-yl]-3,5-difluoro-5,6,7,8-tetrahydronaphthalene-1-carbonitrile], for which the pIC50 is > 7.00. Consider `Cc1nc(C)c(-c2ccc([C@H]3CC[C@H](F)c4cc(F)cc(C#N)c43)c3c2[C@H](O)C(F)(F)C3)s1` [Example 193, (5S,8R)-8-[(1S)-7-(2,4-dimethyl-1,3-thiazol-5-yl)-2,2-difluoro-1-hydroxy-1,3-dihydroinden-4-yl]-3,5-difluoro-5,6,7,8-tetrahydronaphthalene-1-carbonitrile], for which the pIC50 was > 7.00.

In turn, `N#Cc1cc(F)cc2c1[C@@H](c1ccc(-c3c[nH]c4ncccc34)c3c1CC(F)(F)[C@H]3O)CC[C@@H]2F` [Example 243, (5S,8R)-8-[(1S)-2,2-difluoro-1-hydroxy-7-{1H-pyrrolo[2,3-b]pyridin-3-yl}-2,3-dihydro-1H-inden-4-yl]-3,5-difluoro-5,6,7,8-tetrahydronaphthalene-1-carbonitrile] showed a pIC50 of 6.00 to 7.00. On the same count and under the same terms, under `Cc1nc2ccccn2c1-c1ccc([C@H]2CC[C@H](F)c3cc(F)cc(C#N)c32)c2c1[C@H](O)C(F)(F)C2` [Example 231, (5S,8R)-8-[(1S)-2,2-difluoro-1-hydroxy-7-(2-methylimidazo[1,2-a]pyridin-3-yl)-1,3-dihydroinden-4-yl]-3,5-difluoro-5,6,7,8-tetrahydronaphthalene-1-carbonitrile] stands 6.00 to 7.00; under `Cc1ncc(-c2c(F)cc([C@H]3CC[C@H](F)c4cc(F)cc(C#N)c43)c3c2[C@H](O)C(F)(F)C3)c(N)n1` [Example 205, (5S,8R)-8-[(1S)-7-(4-amino-2-methylpyrimidin-5-yl)-2,2,6-trifluoro-1-hydroxy-2,3-dihydro-1H-inden-4-yl]-3,5-difluoro-5,6,7,8-tetrahydronaphthalene-1-carbonitrile], > 7.00; under `Cn1nccc1-c1ccc([C@H]2C[C@H](F)[C@H](F)c3cc(F)cc(C#N)c32)c2c1[C@H](O)C(F)(F)C2` [Example 217, (5R,6S,8R)-8-[(1S)-2,2-difluoro-1-hydroxy-7-(1-methyl-1H-pyrazol-5-yl)-2,3-dihydro-1H-inden-4-yl]-3,5,6-trifluoro-5,6,7,8-tetrahydronaphthalene-1-carbonitrile], > 7.00. Same read-out and setting: the same measure for `CS(=O)(=O)c1c(N)cc([C@H]2CC[C@H](F)c3cc(F)cc(C#N)c32)c2c1[C@H](O)[C@H](F)C2` [Example 212, (5S,8R)-8-[(1S,2R)-6-amino-2-fluoro-1-hydroxy-7-methylsulfonyl-2,3-dihydro-1H-inden-4-yl]-3,5-difluoro-5,6,7,8-tetrahydronaphthalene-1-carbonitrile]: > 7.00; for `Cc1c(-c2ccc([C@H]3CC[C@H](F)c4cc(F)cc(C#N)c43)c3c2[C@H](O)C(F)(F)C3)nnn1C` [Example 183, (5S,8R)-8-[(1S)-7-(1,5-dimethyltriazol-4-yl)-2,2-difluoro-1-hydroxy-1,3-dihydroinden-4-yl]-3,5-difluoro-5,6,7,8-tetrahydronaphthalene-1-carbonitrile]: 6.00 to 7.00; for `Cc1nc(S(C)(=O)=O)ccc1-c1ccc([C@H]2CC[C@H](F)c3cc(F)cc(C#N)c32)c2c1[C@H](O)C(F)(F)C2` [Example 198, (5S,8R)-8-[(1S)-2,2-difluoro-1-hydroxy-7-(2-methyl-6-methylsulfonylpyridin-3-yl)-1,3-dihydroinden-4-yl]-3,5-difluoro-5,6,7,8-tetrahydronaphthalene-1-carbonitrile]: 6.00 to 7.00. As to `Cn1nncc1-c1ccc([C@H]2CC[C@H](F)c3cc(F)cc(C#N)c32)c2c1[C@H](O)[C@H](F)C2` [Example 175, (5S,8R)-3,5-difluoro-8-[(1S,2R)-2-fluoro-1-hydroxy-7-(3-methyltriazol-4-yl)-2,3-dihydro-1H-inden-4-yl]-5,6,7,8-tetrahydronaphthalene-1-carbonitrile], the pIC50 was > 7.00.

(Values after patent US11787762B2, “Tetralin and tetrahydroquinoline compounds as inhibitors of HIF-2alpha” (ARCUS BIOSCIENCES, INC., priority 2020, dated 2023).)
